Measurements as given in patent publication US11457625B1, “Tuning a broad acting antimicrobial textile to act as a narrow spectrum antimicrobial textile” (priority 2018, dated 2022).
No end group written: not given here.

Columns and labels:
Staphylococcus aureus = experiment: Testing swatches for binding and antimicrobial activity (strain not distinguished); assay type: cell-based; conditions: for colonies counted (cells recovered from swatch), S. aureus: Cj peptide attached to swatches
Experimental: (§1) Peptides were synthesized at New England peptides with the linker sequence of GGSGGS or GGSGG on the N terminal (Table 1). Textile swatches of cotton or cotton-nylon blends were cut to 1 cm circles and the surface hydroxyls were converted to carboxyl by submerging the swatches 1 hour with agitation at 300 rpm in 25 mL of citric acid buffer (7% citric acid, 5% Sodium Hypophosphate monohydrate). (Synthetic material such as nylon and polyester require a pretreatment with sodium hydroxide before the citric acid buffer is added) To cure the reaction, the swatches were heated in a microwave for 2 minutes. After curing, swatches were washed the in 25 mL of deionized water for 5 min. The swatches were activated by submerging in 30 mL of EDC solution (0.6372 g in 30 mL 200 mM monobasic sodium phosphate buffer pH) and incubating for 45 minutes with 300 rpm agitation. After incubation, swatches were rinsed in 25 mL 20 mM sodium phosphate buffer pH 7.2 for 5 minutes. During the wash, 5 ml peptide samples were prepare from a 2 mg/ml stock of peptide in 20 mM sodium phosphate solution at concentrations of […] 1.25 mg/g peptide. […] Each solution was added to one well of a six well microtiter plate. […] Swatches were washed in 20 mM phosphate buffer for 5 min, then wash for 5 min in water twice and allowed to air dry.
(§2) Inoculation took place using an 8 ml overnight cultures for each target microorganisms in appropriate media. For Staphylococcus aureus, Staphylococcus epidermidis and Pseudomonas aeruginosa cultures were grown on Nutrient broth. For Corynebacterium jeikieson the media was Brain Heart Infusion supplemented with 0.1% Tween 80 and for Micrococcus luteus the media was Brain Heart Infusion media. The OD for each culture was taken and diluted to an OD of 1 using appropriate growth media. For each culture a 1 mL aliquot was taken and transfer to a clean 2 mL eppendorf tube. The tubes were placed into a micro centrifuge and spun at 10,000 G until a pellet has formed. The media was aspirated without disturbing the pellet and the pellet was re-suspend in 1 mL of 0.125× Nutrient Broth with 0.15% Triton X-100. This was repeated to wash pellets. The pellet was re-suspend in 1 ml of 0.125× Nutrient Broth with 0.15% Triton X-100 and the above centrifugation was performed again. After last wash, the pellet was re-suspended in 1 ml of 0.125× Nutrient Broth with 0.15% Triton X-100 then added to 8 mL of 0.125× Nutrient Broth with 0.15% Triton X-100. […] The inoculum was enumerated by adding 500 ul into 4.5 ml of PBS and serial diluting 7 more times. Counts were taken by spread plating only 10^−6, 10^−7 and 10^−8.
(§3) Swatches prepared previously were inoculated with 25 ul of the inoculum (scoured samples will be used as a negative control). The inoculated swatches were incubated for 24 hr at 37° C. in a sealed tube. To analyze binding, the swatches were placed into 2.5 ml modified DE broth and vortex for 5 min. The modified DE broth was serial diluted 10^−3 by adding 500 ul to 4.5 ml phosphate buffer. The dilution was spread plated onto the appropriate growth media (mannitol salts for Staphylococcus aureus, nutrient agar for Staphylococcus epidermidis, Cetrimide agar for Pseudomonas aeruginosa, Brain heart infusion for Micrococcus luteus and Brain Heart infusion with 0.1% Tween 80 for Corynebacterium jeikeium) and incubate overnight.
These concentration were chosen based upon result from previously described experiments. The treated fabric was evaluated against two different strains of Staphylococcus aureus (Table 5). […] A follow up experiment provide additional evidence for this possibility.
(§4) An experiment was run using the same two Staphylococcus aureus strains 27217 and 25923 with the addition of Staphylococcus epidermidis. […]

S. epidermidis 12228 = experiment: Testing swatches for binding and antimicrobial activity; assay type: cell-based, Staphylococcus epidermidis; conditions: for colonies counted (cells recovered from swatch), S. epidermidis: Cj peptide attached to swatches
Experimental: as §1, §2, §3, §4
(§5) The six potential peptides were attached to swatches and exposed to Corynebacterium jeikeium, Micrococcus luteus, Staphylococcus epidermidis, Staphylococcus aureus and Pseudomonas aeruginosa.

Pseudomonas aeruginosa = experiment: as above; assay type: cell-based; conditions: for colonies counted (cells recovered from swatch), P. aeruginosa: Cj peptide attached to swatches
Experimental: as §1, §2, §3
Pseudomonas aeruginosa was examined using concentrations based upon the textile MIC.
as §5

Corynebacterium jeikeium = experiment: as above; assay type: cell-based; conditions: peptide attached to swatches
Experimental: as §1, §2, §3, §5

Micrococcus luteus = experiment: as above; assay type: cell-based; conditions: peptide attached to swatches
Experimental: as §1, §2, §3, §5

S aureus 27217 = experiment: as above; assay type: cell-based, Staphylococcus aureus; conditions: PHMB 0%, 24 hr 37° C.
Experimental: as §1
as §2, with “Counts were taken by spread plating only 10^−6, 10^−7 and 10^−8.” left out
(§6) These concentration were chosen based upon result from previously described experiments. The treated fabric was evaluated against two different strains of Staphylococcus aureus (Table 5). […]

S. aureus 25923 = experiment: as above; assay type: cell-based, Staphylococcus aureus; conditions: PHMB 0%, 24 hr 37° C.
Experimental: as §1
as §2, with “Counts were taken by spread plating only 10^−6, 10^−7 and 10^−8.” left out
as §6

## GGSGGTWTKKLK (MICROCOCCUS LUTEUS and CORYNEBACTERIUM JEIKIEUM) [Cj2]
Staphylococcus aureus
  colonies counted (cells recovered from swatch), S. aureus: 7680000
S. epidermidis 12228
  colonies counted (cells recovered from swatch), S. epidermidis: 294000
Pseudomonas aeruginosa
  colonies counted (cells recovered from swatch), P. aeruginosa: TNTC
Corynebacterium jeikeium
  colonies counted (cells recovered from swatch), C. Jeikeium: 0
Micrococcus luteus
  colonies counted (cells recovered from swatch), M luteus: 0

## GGSGGSKKHRKHRKHRKH (also: bound to textile) [pep]
Pseudomonas aeruginosa; 2.5 mg/ml pep, 0% PHMB
  CFU: 0 CFU

## GGSGGGWWNSWGKCV (MICROCOCCUS LUTEUS and CORYNEBACTERIUM JEIKIEUM) [Cj 5]
Staphylococcus aureus
  colonies counted (cells recovered from swatch), S. aureus: 4195000
S. epidermidis 12228
  colonies counted (cells recovered from swatch), S. epidermidis: 337000
Pseudomonas aeruginosa
  colonies counted (cells recovered from swatch), P. aeruginosa: TNTC
Corynebacterium jeikeium
  colonies counted (cells recovered from swatch), C. Jeikeium: 0
Micrococcus luteus
  colonies counted (cells recovered from swatch), M luteus: 0

## GGSGGSWQHVFT (MICROCOCCUS LUTEUS and CORYNEBACTERIUM JEIKIEUM) [Cj 4]
Staphylococcus aureus
  colonies counted (cells recovered from swatch), S. aureus: 5315000
S. epidermidis 12228
  colonies counted (cells recovered from swatch), S. epidermidis: 145000
Pseudomonas aeruginosa
  colonies counted (cells recovered from swatch), P. aeruginosa: 28000
Corynebacterium jeikeium
  colonies counted (cells recovered from swatch), C. Jeikeium: 245
Micrococcus luteus
  colonies counted (cells recovered from swatch), M luteus: 0

## GGSGGIGGVSGGLTG (MICROCOCCUS LUTEUS and CORYNEBACTERIUM JEIKIEUM) [Cj 6]
Staphylococcus aureus
  colonies counted (cells recovered from swatch), S. aureus: 5980000
S. epidermidis 12228
  colonies counted (cells recovered from swatch), S. epidermidis: 122000
Pseudomonas aeruginosa
  colonies counted (cells recovered from swatch), P. aeruginosa: 175000
Corynebacterium jeikeium
  colonies counted (cells recovered from swatch), C. Jeikeium: 0
Micrococcus luteus
  colonies counted (cells recovered from swatch), M luteus: 0

## GGSGGNGVVLTL (MICROCOCCUS LUTEUS and CORYNEBACTERIUM JEIKIEUM) [Cj 1]
Staphylococcus aureus
  colonies counted (cells recovered from swatch), S. aureus: 6055000
S. epidermidis 12228
  colonies counted (cells recovered from swatch), S. epidermidis: 65500
Pseudomonas aeruginosa
  colonies counted (cells recovered from swatch), P. aeruginosa: 40000
Corynebacterium jeikeium
  colonies counted (cells recovered from swatch), C. Jeikeium: 175
Micrococcus luteus
  colonies counted (cells recovered from swatch), M luteus: 0

## GGSGGNRWWQGVVP (MICROCOCCUS LUTEUS and CORYNEBACTERIUM JEIKIEUM) [Cj3]
Staphylococcus aureus
  colonies counted (cells recovered from swatch), S. aureus: 7040000
S. epidermidis 12228
  colonies counted (cells recovered from swatch), S. epidermidis: 121500
Pseudomonas aeruginosa
  colonies counted (cells recovered from swatch), P. aeruginosa: 27000
Corynebacterium jeikeium
  colonies counted (cells recovered from swatch), C. Jeikeium: 300
Micrococcus luteus
  colonies counted (cells recovered from swatch), M luteus: 0

## GGSGGSYSTCDFIM (STAPHYLOCOCCUS AUREUS) [Peptide]
S aureus 27217; peptide 1.75 mg/g
  colonies counted (cells recovered from swatch): 475000
S aureus 27217; peptide 2.5 mg/ml
  colonies counted (cells recovered from swatch): 0
S. aureus 25923; peptide 1.75 mg/g
  colonies counted (cells recovered from swatch): 4765000
S. aureus 25923; peptide 2.5 mg/ml
  colonies counted (cells recovered from swatch): 0
Staphylococcus aureus; both strains
  lowest peptide concentration that will bind the cells: 2.5 mg/mL
Staphylococcus aureus; both strains, peptide 2.5 mg/ml regardless of the PHMB concentration
  binding of cells (in words): completely bound all of the cells
Staphylococcus aureus; lower peptide concentrations (below 2.5 mg/ml)
  binding of cells (in words): may have bound some of the cells, but not all of them
Staphylococcus aureus; strains 27217 and 25923, peptide present (2.5 mg/ml), PHMB 0 or 0.0008%
  cells recovered (in words): no Staphylococcus aureus cell were recovered
S. epidermidis 12228; S. aureus-binding peptide 2.5 mg/ml
  binding by the peptide (in words): does not appear to be any binding
S. epidermidis 12228; S. aureus-binding peptide 2.5 mg/ml, PHMB 0%
  colonies counted (cells recovered from swatch): 693000
